Test results published in ChEMBL document CHEMBL5303304, “EUbOPEN Chemogenomics Library - IncuCyte” (2023).

Key:
Assay type in all cases: toxicity, cell-based
U2OS = assay: Incucyte cell viability with U2OS; details: human, 10 µM, compound concentration 10 uM
HEK-293T = assay: Incucyte cell viability with HEK293T; details: human, 10 µM, compound concentration 10 uM
Fibroblast = assay: Incucyte cell viability with human fibroblast; details: 10 µM, compound concentration 10 uM
Also: unitless GR value; below 1 slowed growth and below 0 cell loss.

Compound	Growth Rate (U2OS; 0 h, replicate number 1)	Growth Rate (U2OS; 6 h, replicate number 1)	Growth Rate (U2OS; 12 h, replicate number 2)	Growth Rate (U2OS; 18 h, replicate number 2)	Growth Rate (U2OS; 24 h, replicate number 1)	Growth Rate (U2OS; 24 h, replicate number 2)	Growth Rate (HEK-293T; 0 h, replicate number 1)	Growth Rate (Fibroblast; 0 h, replicate number 1)	Growth Rate (Fibroblast; 0 h, replicate number 2)	Growth Rate (Fibroblast; 6 h, replicate number 1)	Growth Rate (Fibroblast; 18 h, replicate number 1)	Growth Rate (Fibroblast; 18 h, replicate number 2)	Growth Rate (Fibroblast; 24 h, replicate number 1)	Growth Rate (U2OS; 12 h, replicate number 1)	Growth Rate (HEK-293T; 0 h, replicate number 2)	Growth Rate (U2OS; 6 h, replicate number 2)	Growth Rate (HEK-293T; 12 h, replicate number 2)	Growth Rate (Fibroblast; 12 h, replicate number 2)	Growth Rate (Fibroblast; 24 h, replicate number 2)	further results
CN(C1CCc2c(c3ccccc3n2CC(=O)O)C1)S(=O)(=O)c1ccc(F)cc1 (stereo not given)	0.71	0.61	0.9	0.93	0.87	0.92	0.38	-0.98	0.14	0.47	0.85	0.96	0.96	–	–	–	–	–	–	Growth Rate (U2OS; 0 h, replicate number 2): 0.7; Growth Rate (Fibroblast; 6 h, replicate number 2): 0.23
CC(C)(O)c1coc(S(=O)(=O)NC(=O)Nc2c3c(cc4c2CCC4)CCC3)c1	0.85	0.92	0.89	0.99	–	0.94	-0.08	–	0.57	–	–	–	0.99	0.88	0.34	–	–	–	–	–
NCc1ccc(OCCCc2sc(-c3ccc4c(c3)/C(=N/Nc3nc5ccccc5s3)CCC4)nc2C(=O)O)cc1	0.77	0.23	0.7	0.72	0.58	0.74	0.54	–	-0.83	0.94	–	–	–	0.44	-0.79	–	–	–	–	Growth Rate (U2OS; 18 h, replicate number 1): 0.63
Cc1nn(C)c(COc2ccc(N3CCN(S(=O)(=O)N(C)C)CC3)cc2)c1-c1cccc2c(CCCOc3cccc4ccccc34)c(C(=O)O)n(CCN3CCOCC3)c12	0.4	0.3	0.97	0.92	0.86	0.98	0.38	–	–	0.53	0.58	–	0.76	0.85	–	0.93	–	–	–	Growth Rate (U2OS; 18 h, replicate number 1): 0.86; Growth Rate (HEK-293T; 6 h, replicate number 1): 0.99; Growth Rate (HEK-293T; 6 h, replicate number 2): 0.84; Growth Rate (HEK-293T; 12 h, replicate number 1): 0.93; Growth Rate (HEK-293T; 18 h, replicate number 1): 0.93
Cc1cc(OCc2nc3ccccc3s2)ccc1NC(=O)Nc1ccc(Cl)c(Cl)c1	–	–	–	0.98	–	–	0.1	-1	-0.81	–	–	0.94	–	–	-0.01	–	0.92	0.94	0.92	–
Cc1nn(-c2nc3ccc(Cl)c(Cl)c3[nH]2)c(O)c1C1OC(=O)c2ccccc21 (stereo not given)	0.81	0.82	–	–	–	–	0.09	-1	-0.86	0.95	–	–	0.83	–	–	–	–	–	–	–
CCCCCCC(Sc1nc(Cl)cc(NCc2ccc(-c3ccccc3)cc2)n1)C(=O)O (stereo not given)	0.82	–	0.97	–	0.94	0.96	0.04	–	-0.63	–	–	–	0.91	0.89	–	–	–	–	–	–
N[C@@H](CC(=O)O)Cn1nnc(-c2ccc(Oc3ncc(Cl)cc3F)cc2)n1	–	0.62	–	–	–	–	0.53	–	–	–	–	0.74	0.95	–	–	–	0.58	0.4	0.76	Growth Rate (HEK-293T; 6 h, replicate number 1): 0.85; Growth Rate (HEK-293T; 6 h, replicate number 2): 0.12; Growth Rate (HEK-293T; 12 h, replicate number 1): 0.94; Growth Rate (HEK-293T; 18 h, replicate number 2): 0.72; Growth Rate (HEK-293T; 24 h, replicate number 1): 0.95; Growth Rate (HEK-293T; 24 h, replicate number 2): 0.83
Cc1sc(C(=O)c2cncnc2N[C@@H]2C[C@H](COS(N)(=O)=O)[C@@H](O)C2)cc1[C@@H]1NCCc2ccc(Cl)cc21	–	0.59	-0.03	0.17	0.66	0.3	-0.45	–	-0.16	0.42	0.44	–	0.47	1	-0.97	-0.29	–	0.8	–	Growth Rate (U2OS; 0 h, replicate number 2): 0.29; Growth Rate (U2OS; 18 h, replicate number 1): 0.96; Growth Rate (HEK-293T; 18 h, replicate number 1): 0.9; Growth Rate (HEK-293T; 24 h, replicate number 1): 0.74; Growth Rate (HEK-293T; 24 h, replicate number 2): 0.88; Growth Rate (Fibroblast; 12 h, replicate number 1): 0.55
C=C[C@@]12CCc3cc(O)ccc3[C@H]1CC[C@@]1(C)[C@H]2CC[C@@H]1O	0.1	0.77	0.95	0.93	–	0.91	0.4	-1	–	0.24	0.92	0.95	0.83	0.99	-0.37	0.96	–	0.29	0.71	Growth Rate (Fibroblast; 6 h, replicate number 2): 0.88; Growth Rate (Fibroblast; 12 h, replicate number 1): 0.86
CCCCC[C@@](C)(O)/C=C/[C@H]1C(=O)CC(O)C1C/C=C\CCCC(=O)O (stereo not given in full)	–	0.49	–	–	0.94	1	-0.27	–	–	–	–	0.57	–	–	0.17	–	0.96	0.2	0.71	Growth Rate (Fibroblast; 6 h, replicate number 2): -0.92; Growth Rate (Fibroblast; 12 h, replicate number 1): 0.71
O=C(O)CCCCCC[C@@H]1C(=O)NC(=O)N1CCC(O)C1CCCCC1 (stereo not given in full)	0.14	0.54	0.93	0.87	–	0.92	-0.07	-0.99	0.52	-0.07	0.69	–	0.75	–	0.52	0.99	–	–	–	Growth Rate (Fibroblast; 12 h, replicate number 1): 0.61
CC(F)(F)CN1C(=O)c2[nH]nc(-c3cccc4[nH]c(=O)oc34)c2C1c1ccc(Oc2cc(C(F)(F)F)cc(C(F)(F)F)c2)cc1 (stereo not given)	–	–	–	–	0.88	–	0.14	–	-0.97	0.84	0.98	–	0.96	–	-0.56	–	0.76	–	–	Growth Rate (HEK-293T; 18 h, replicate number 1): 0.83; Growth Rate (HEK-293T; 18 h, replicate number 2): 0.68; Growth Rate (HEK-293T; 24 h, replicate number 1): 0.78; Growth Rate (HEK-293T; 24 h, replicate number 2): 0.75
Cc1nnc2n1-c1sc3c(c1C(c1ccccc1Cl)=NC2)C[C@@H](C(=O)N1CCOCC1)C3	0.65	0.49	–	–	–	–	-0.21	–	–	–	–	–	–	0.84	-0.7	–	–	0.81	0.86	–
CCCCc1c(-c2ccccc2)nc(N)nc1-c1ccc(OCc2ccccc2)c(F)c1F	–	0.5	0.36	0.55	1	0.77	-0.23	–	0.8	–	–	–	–	–	-0.46	0.27	0.89	–	–	Growth Rate (U2OS; 0 h, replicate number 2): -0.86; Growth Rate (HEK-293T; 24 h, replicate number 2): 0.99
